Measured values taken from ChEMBL document CHEMBL4368923 (J Med Chem, 2019).
pEC50, pIC50: −log10 of the molar value. In brackets after ≈: the same amount, converted by molar mass.

Legend:
[1] = test system: Human immunodeficiency virus 1; assay: Antiviral activity against HIV1 3B infected in human MT4 cells assessed as inhibition of virus-induced cytotoxicity after 5 days by MTT assay; format: functional, organism-based; details: Human immunodeficiency virus 1, 3B, MT4, 120 h; for pEC50: read-out: EC50; for EC50: read-out: pEC50 (converted)
[2] = target: Human immunodeficiency virus type 1 reverse transcriptase (Human immunodeficiency virus 1, UniProt Q72547); assay: Inhibition of HIV1 reverse transcriptase p66/p51 using poly(rA)/oligo(dT)16 as template/primer measured after 40 mins by pico-green based spectrofluorometric analysis
[3] = Selectivity index, ratio of CC50 for human MT4 cells to EC50 for HIV1 RES056 harboring reverse transcriptase K103N/Y181C double mutant infected in human MT4 cells
[4] = Selectivity index, ratio of CC50 for human MT4 cells to EC50 for HIV1 3B infected in human MT4 cells
[5] = Cytotoxicity against human MT4 cells assessed as reduction in cell viability after 5 days by MTT assay; format: cell-based
[6] = test system: Human immunodeficiency virus 1; assay: Antiviral activity against HIV1 RES056 harboring reverse transcriptase K103N/Y181C double mutant infected in human MT4 cells assessed as inhibition of virus-induced cytotoxicity after 5 days by MTT assay; format: functional, organism-based; details: Human immunodeficiency virus 1, RES056, MT4, 120 h
[7] = test system: Human immunodeficiency virus 1; assay: Antiviral activity against HIV1 harboring reverse transcriptase E138K mutant infected in human MT4 cells assessed as inhibition of virus-induced cytotoxicity after 5 days by MTT assay; format: functional, organism-based; details: Human immunodeficiency virus 1, MT4, 120 h
[8] = test system: Human immunodeficiency virus 1; assay: Antiviral activity against HIV1 harboring reverse transcriptase F227L/V106A double mutant infected in human MT4 cells assessed as inhibition of virus-induced cytotoxicity after 5 days by MTT assay; format: functional, organism-based; details: Human immunodeficiency virus 1, MT4, 120 h
[9] = test system: Human immunodeficiency virus 1; assay: Antiviral activity against HIV1 harboring reverse transcriptase Y181C mutant infected in human MT4 cells assessed as inhibition of virus-induced cytotoxicity after 5 days by MTT assay; format: functional, organism-based; details: Human immunodeficiency virus 1, MT4, 120 h
[10] = test system: Human immunodeficiency virus 1; assay: Antiviral activity against HIV1 harboring reverse transcriptase K103N mutant infected in human MT4 cells assessed as inhibition of virus-induced cytotoxicity after 5 days by MTT assay; format: functional, organism-based; details: Human immunodeficiency virus 1, MT4, 120 h
[11] = test system: Human immunodeficiency virus 1; assay: Antiviral activity against HIV1 harboring reverse transcriptase L100I mutant infected in human MT4 cells assessed as inhibition of virus-induced cytotoxicity after 5 days by MTT assay; format: functional, organism-based; details: Human immunodeficiency virus 1, MT4, 120 h
[12] = test system: Human immunodeficiency virus 1; assay: Antiviral activity against HIV1 harboring reverse transcriptase Y188L mutant infected in human MT4 cells assessed as inhibition of virus-induced cytotoxicity after 5 days by MTT assay; format: functional, organism-based; details: Human immunodeficiency virus 1, MT4, 120 h
[13] = Solubility in water at pH 7; format: physicochemical
[14] = Solubility of the compound in deionized water at pH 7
[15] = Subacute toxicity in Kunming mouse assessed as pathological damage to spleen at 50 mg/kg, po dosed once every other day for 14 days by hematoxylin and eosin staining based assay; format: organism-based; details: in vivo, 336 h
[16] = Acute toxicity in Kunming mouse assessed as clonic convulsion at 2000 mg/kg, ig measured every day for 1 week; format: organism-based; details: in vivo, po, 168 h
[17] = Acute toxicity in Kunming mouse assessed as lethargy at 2000 mg/kg, ig measured every day for 1 week; format: organism-based; details: in vivo, po, 168 h
[18] = Subacute toxicity in Kunming mouse assessed as pathological damage to kidneys at 50 mg/kg, po dosed once every other day for 14 days by hematoxylin and eosin staining based assay; format: organism-based; details: in vivo, 336 h
[19] = Acute toxicity in Kunming mouse assessed as effect on body weight at 2000 mg/kg, ig measured every day for 1 week; format: organism-based; details: in vivo, po, 168 h
[20] = Acute toxicity in Kunming mouse assessed as effect on animal growth at 2000 mg/kg, ig measured every day for 1 week; format: organism-based; details: in vivo, po, 168 h
[21] = Subacute toxicity in Kunming mouse assessed as pathological damage to liver at 50 mg/kg, po dosed once every other day for 14 days by hematoxylin and eosin staining based assay; format: organism-based; details: in vivo, 336 h
[22] = Subacute toxicity in Kunming mouse assessed as ruffled fur at 50 mg/kg, po dosed once every other day for 14 days; format: organism-based; details: in vivo, 336 h
[23] = Subacute toxicity in Kunming mouse assessed as lethargy at 50 mg/kg, po dosed once every other day for 14 days; format: organism-based; details: in vivo, 336 h
[24] = Subacute toxicity in Kunming mouse assessed as pathological damage to heart at 50 mg/kg, po dosed once every other day for 14 days by hematoxylin and eosin staining based assay; format: organism-based; details: in vivo, 336 h
[25] = Subacute toxicity in Kunming mouse assessed as mortality at 50 mg/kg, po dosed once every other day for 14 days; format: organism-based; details: in vivo, 336 h
[26] = Subacute toxicity in Kunming mouse assessed as pathological damage to lungs at 50 mg/kg, po dosed once every other day for 14 days by hematoxylin and eosin staining based assay; format: organism-based; details: in vivo, 336 h
[27] = Acute toxicity in Kunming mouse assessed as ruffled fur at 2000 mg/kg, ig measured every day for 1 week; format: organism-based; details: in vivo, po, 168 h
[28] = Subacute toxicity in Kunming mouse assessed as effect on body weight at 50 mg/kg, po dosed once every other day for 14 days; format: organism-based; details: in vivo, 336 h
[29] = Acute toxicity in Kunming mouse assessed as mortality at 2000 mg/kg, ig measured every day for 1 week; format: organism-based; details: in vivo, po, 168 h
[30] = Subacute toxicity in Kunming mouse assessed as anorexia at 50 mg/kg, po dosed once every other day for 14 days; format: organism-based; details: in vivo, 336 h
[31] = Subacute toxicity in Kunming mouse assessed as clonic convulsion at 50 mg/kg, po dosed once every other day for 14 days; format: organism-based; details: in vivo, 336 h
[32] = Acute toxicity in Kunming mouse assessed as anorexia at 2000 mg/kg, ig measured every day for 1 week; format: organism-based; details: in vivo, po, 168 h

SMILES | pEC50 [1] | EC50 [1] [µM] | pIC50 [2] | selectivity ratio ([3]; MT4 cells) | selectivity ratio ([4]; MT4 cells) | CC50 at 120 h [5] [µM] | pEC50 [6] | pEC50 [7] | pEC50 [8] | pEC50 [9] | pEC50 [10] | pEC50 [11] | pEC50 [12] | also measured
Cc1cc(C)c(Oc2nc(N)nc(Nc3ccc(CN4CCOCC4)cc3)n2)c(C)c1 | 6.92 | 0.12 | 6.35 | 1 | ≥ 105 | ≥ 12.9 | < 4.89 | – | – | – | – | – | – | –
Nc1ccn([C@@H]2CS[C@H](CO)O2)c(=O)n1 [LAMIVUDINE] | 5.19 | – | – | – | > 14 | > 87.2 | – | – | – | – | – | – | – | –
Cc1cc(C#N)cc(C)c1Oc1ccnc(Nc2ccc(CN3CCN(S(C)(=O)=O)CC3)cc2)n1 | 8.14 | 0.00724 | 7.31 | < 1 | 475 | 3.43 | < 5.46 | 7.05 | 5.99 | 6.33 | 6.64 | 6.96 | < 5.28 | –
Cc1cc(C#N)cc(C)c1Oc1ccnc(Nc2ccc(CNC3CCN(C(=O)OC(C)(C)C)CC3)cc2)n1 | 6.72 | 0.191 | 6.56 | < 1 | 19 | 3.51 | < 5.45 | – | – | – | – | – | – | –
Cc1cc(/C=C/C#N)cc(C)c1Nc1ccnc(Nc2ccc(C#N)cc2)n1 [RILPIVIRINE] | 8.89 | 0.00129 | – | – | – | 4.38 | – | – | – | – | – | – | – | –
Cc1ccnc2c1NC(=O)c1cccnc1N2C1CC1 [NEVIRAPINE] | 6.62 | 0.24 | – | – | – | > 15 | < 4.82 | – | < 4.82 | < 4.82 | 4.96 | 5.79 | < 4.82 | –
Cc1cc(C#N)cc(C)c1Oc1nc(Nc2ccc(C#N)cc2)nc(N)c1Br [ETRAVIRINE] | 8.46 | 0.00347 | – | – | – | > 4.59 | 7.30 | – | 7.59 | 7.68 | 8.41 | 8.13 | 7.57 | solubility [13]: < 0.001 mg/mL; solubility [14]: < 0.001 mg/mL
Cc1cc(/C=C/C#N)cc(C)c1Oc1ccnc(Nc2ccc(CN3CCC(NC(=O)OC(C)(C)C)CC3)cc2)n1 | 7.59 | 0.0257 | 6.30 | < 1 | 138 | 3.55 | < 5.45 | 6.82 | ≤ 5.94 | 6.24 | 7.17 | 6.55 | < 5.37 | –
Cc1cc(/C=C/C#N)cc(C)c1Oc1ccnc(Nc2ccc(CN3CCN(S(C)(=O)=O)CC3)cc2)n1 | 8.46 | 0.00347 | 7.17 | – | – | ≥ 173 | 6.10 | 8.12 | 6.96 | 7.60 | 8.44 | 8.00 | 5.79 | Activity [15]: Non-Toxic; Activity [16]: Non-Toxic; Activity [17]: Non-Toxic; Activity [18]: Non-Toxic; Activity [19]: Non-Toxic; Activity [20]: Non-Toxic; Activity [21]: Non-Toxic; Activity [22]: Non-Toxic; Activity [23]: Non-Toxic; Activity [24]: Non-Toxic; Activity [25]: Non-Toxic; Activity [26]: Non-Toxic; Activity [27]: Non-Toxic; Activity [28]: Non-Toxic; Activity [29]: Non-Toxic; Activity [30]: Non-Toxic; Activity [31]: Non-Toxic; Activity [32]: Non-Toxic
Cc1cc(C#N)cc(C)c1Oc1ccnc(Nc2ccc(CN3CCC(NS(C)(=O)=O)CC3)cc2)n1 | 7.26 | 0.055 | 7.10 | < 1 | 331 | 18.1 | < 4.74 | 6.42 | 5.49 | 5.59 | 6.34 | 6.15 | ≤ 5.11 | –
O=C1Nc2ccc(Cl)cc2[C@@](C#CC2CC2)(C(F)(F)F)O1 [EFAVIRENZ] | – | – | – | – | – | > 6.34 | 6.62 | 8.22 | 6.57 | – | 7.05 | 7.28 | 6.62 | –
Cc1cc(/C=C/C#N)cc(C)c1Oc1ccnc(Nc2ccc(CN3CCN(C(=O)OC(C)(C)C)CC3)cc2)n1 | 7.82 | 0.0151 | 6.53 | < 1 | 209 | 3.04 | < 5.52 | 6.89 | 6.82 | 6.38 | 7.70 | 6.70 | < 5.39 | –
Cc1cc(C#N)cc(C)c1Oc1ccnc(Nc2ccc(CN3CCC(NS(N)(=O)=O)CC3)cc2)n1 | 7.04 | 0.0912 | 6.82 | < 1 | 40 | 3.72 | < 5.43 | 6.35 | ≤ 5.17 | 5.18 | 6.30 | 5.67 | < 5.16 | –
Cc1cc(C#N)cc(C)c1Oc1cc(Cl)nc(Nc2ccc(CN3CCOCC3)cc2)c1 | 6.03 | – | – | < 1 | 7 | – | < 5.16 | – | – | – | – | – | – | –
Cc1cc(C#N)cc(C)c1Oc1ccnc(Nc2ccc(CN3CCOCC3)cc2)n1 | 7.96 | 0.011 | 7.38 | < 1 | 2040 | 23 | < 4.64 | 6.85 | 5.74 | 6.04 | 7.17 | 6.39 | 5.31 | solubility [14]: 0.0334 mg/mL (≈ 80.4 µM)
Cc1cc(/C=C/C#N)cc(C)c1Oc1ccnc(Nc2ccc(CN3CCC(NS(C)(=O)=O)CC3)cc2)n1 | 8.16 | 0.00692 | 7.12 | < 1 | 1020 | 6.99 | < 5.16 | 7.44 | 6.33 | 6.48 | 7.60 | 6.89 | 5.08 | –
Cc1cn([C@H]2C[C@H](N=[N+]=[N-])[C@@H](CO)O2)c(=O)[nH]c1=O [ZIDOVUDINE] | – | – | – | – | – | > 7.48 | 7.82 | 7.85 | 8.21 | 8.25 | 7.96 | 8.44 | 8.29 | selectivity ratio [3]: > 515; selectivity ratio [4]: > 704
Cc1cc(C#N)cc(C)c1Oc1ccnc(Nc2ccc(CN3CCC(NC(=O)OC(C)(C)C)CC3)cc2)n1 | 6.70 | 0.2 | 6.38 | < 1 | 21 | 4.34 | < 5.36 | – | – | – | – | – | – | –
